Each structure is given as a SMILES string.

Here are results for one compound from US12636312B2, “Gold clusters (AuCs), composition and method for treatment of liver cirrhosis” (Wuhan Vast Conduct Science Foundation CO., LTD., priority 2020, dated 2026).

Experiment [1] has as its system cirrhotic model mice. Description: Pathological examination of liver (HE staining, Masson staining) in CCl4-induced liver cirrhosis model mice, Embodiment 3. Particulars: 25 mg/kg intragastrically 20 days. The experiment is classed as in vivo, C57BL/6N mice. An excerpt:
(§1) 120 SPF male C57BL/6N mice, 6-8 weeks old and 16-20 g body weight, were purchased from Beijing Huafukang Experimental Animal Technology Co., Ltd. (production license number: SOCK (Jing) 2019-0008). According to body weight, they were randomly divided into 12 groups (n=10): blank control group, model group, positive control group, A-01 low dose group, A-01 high dose group, A-02 low dose group, A-02 high dose group, B-01 low-dose group, B-01 high-dose group, B-02 low-dose group, B-02 high-dose group, and C high-dose group.
Except for the blank control group, liver cirrhosis model of mice in other groups was prepared by the method of carbon tetrachloride (CCl4)-induction treatment. The modeling protocol was as follows: (1) Each mouse was intraperitoneally injected with 10% CCl4 (diluted with olive oil) at 7 μL/g body weight, twice a week for a total of 8 weeks; mice of the blank control group were injected intraperitoneally with the same amount of olive oil solvent. (2) from the 6th week, two mice were selected and killed 48 hours after the last injection every week. The appearance of the liver was observed. After the appearance was in line with the characteristics of cirrhosis (the 8th week), the liver tissue was fixed with formalin. HE staining and Masson staining were used to evaluate the model of cirrhosis. […]

For experiment [2], the system named is cirrhotic model mice. In words: Serum biochemical testing (ALT, AST, TBil, MAO, ALB) in CCl4-induced liver cirrhosis model mice, Embodiment 3. It counts as in vivo.
Excerpt: as §1
Except for the blank control group, liver cirrhosis model of mice in other groups was prepared by the method of carbon tetrachloride (CCl4)-induction treatment. The modeling protocol was as follows: (1) Each mouse was intraperitoneally injected with 10% CCl4 (diluted with olive oil) at 7 μL/g body weight, twice a week for a total of 8 weeks; mice of the blank control group were injected intraperitoneally with the same amount of olive oil solvent. (2) from the 6th week, two mice were selected and killed 48 hours after the last injection every week. The appearance of the liver was observed. After the appearance was in line with the characteristics of cirrhosis (the 8th week), the liver tissue was fixed with formalin. HE staining and Masson staining were used to evaluate the model of cirrhosis.
After the successful modeling, the mice in the positive control group were given intragastrically 25 mg/kg sorafenib; the mice in the low or high dose groups of A-01, A-02, B-01 and B-02 were given by intraperitoneal injection at 2.5 or 10 mg/kg respectively of the corresponding test material; the mice in the C high dose group were given by intraperitoneal injection at a dose of 40 mg/kg of C; and the mice in the blank control group and the model group were given intraperitoneally physiological saline at 10 mL/kg. The administration was once a day for 20 consecutive days.
After the administration was completed, blood was collected from mouse orbit, and sera were obtained for biochemical testing of albumin (ALbumin, ALB), total bilirubin (TBil), alanine Alanine aminotransferase (ALT), aspartate aminotransferase (AST) and monoamine oxidase (MAO) using Zhongsheng Beikong Kit and biochemical analyzer (Siemens). The detection method was performed in strict accordance with the kit instructions.

[3] abbreviates: 25 mg/kg intragastrically 20 days.
Where [4] appears, read: 25 mg/kg intragastrically 20 days, listed as positive control.
[5] abbreviates: 25 mg/kg intragastrically 20 days, listed as positive control drug.

`CNC(=O)c1cc(Oc2ccc(NC(=O)Nc3ccc(Cl)c(C(F)(F)F)c3)cc2)ccn1` [sorafenib, Sorafenib]: in the experiment on cirrhotic model mice [1], the “HE staining: liver damages versus model group” value was “significant reduction of liver damages”. In addition, in the experiment with cirrhotic model mice [2] (setting [3]), the “serum ALT level versus model group” value is on record as “significantly reduced”, the “serum AST level versus model group” value is reported as “significantly reduced” and the “serum TBIL level versus model group” value is “significantly reduced”. In the experiment with cirrhotic model mice [2] (setting [4]), the “serum ALB level versus model group” value is “did not significantly affect” and the “serum MAO activity versus model group” value was “did not decrease”. In addition, in the experiment on cirrhotic model mice [2] (setting [5]), the “serum ALB level versus model group” value is “no significant effect” and the “serum MAO activity versus model group” value was “no effect”. The “serum MAO activity” value in the experiment on cirrhotic model mice [2] (25 mg/kg intragastrically 20 days, model group 21.5±0.7) worked out at 21.3±2.1 U/L. Besides, the “serum AST activity” value in the experiment with cirrhotic model mice [2] (25 mg/kg intragastrically 20 days, model group 192.0±11.3) is 165.5±11.6 U/L. Also, the “serum ALT activity” value with cirrhotic model mice [2] (25 mg/kg intragastrically once a day for 20 days, model group 188.5±4.9) is listed as 42.8±5.4 U/L.
